Structures are written as SMILES.

Data set [1] can be described thus: Growth inhibition of human MCF10A cells at 5 ug/ml by MTT assay. It is filed as cell-based, MCF-10A. Conditions: MCF10A cells, read-out: GI. (In general: Tetrazolium assays rely on reduction of a dye to a coloured formazan, in cell work by metabolically active cells.)
Data set [2] can be described thus: Growth inhibition of human MCF10A cells at 30 ug/ml by MTT assay. The settings on record: MCF10A cells, read-out: GI. It is filed as cell-based, MCF-10A.
For data set [3], the system named is COLO 205. As to the kind of experiment: Growth inhibition of human COLO205 cells at 20 ug/ml by MTT assay. It is filed as functional. The settings on record: read-out: GI.
Data set [4] deals with MCF7. As to the kind of experiment: Growth inhibition of human MCF7 cells at 20 ug/ml by MTT assay. It is filed as functional. Conditions: read-out: GI.
The test system of data set [5] is HepG2. As to the kind of experiment: Growth inhibition of human HepG2 cells at 5 ug/ml by MTT assay. It is filed as functional. The settings on record: read-out: GI.
For data set [6], the system named is HepG2. As to the kind of experiment: Growth inhibition of human HepG2 cells at 10 ug/ml by MTT assay. It is filed as functional. Conditions: read-out: GI.
For data set [7], the system named is MCF7. The experiment in a line: Growth inhibition of human MCF7 cells at 10 ug/ml by MTT assay. It is filed as functional. Conditions: read-out: GI.
The subject of data set [8] is COLO 205. As to the kind of experiment: Growth inhibition of human COLO205 cells by MTT assay. It is filed as functional, cell-based.
Data set [9] concerns COLO 205. The experiment in a line: Growth inhibition of human COLO205 cells at 5 ug/ml by MTT assay. It is filed as functional. Conditions: read-out: GI.
The nature of data set [10]: Growth inhibition of human MCF10A cells at 10 ug/ml by MTT assay. It is filed as cell-based, MCF-10A. Conditions: MCF10A cells, read-out: GI.
In data set [11] the test system is MCF7. The experiment in a line: Growth inhibition of human MCF7 cells at 30 ug/ml by MTT assay. It is filed as functional. Conditions: read-out: GI.
In data set [12] the test system is COLO 205. The experiment in a line: Growth inhibition of human COLO205 cells at 30 ug/ml by MTT assay. It is filed as functional. Conditions: read-out: GI.
Data set [13] can be described thus: Growth inhibition of human MCF10A cells at 20 ug/ml by MTT assay. Conditions: MCF10A cells, read-out: GI. It is filed as cell-based, MCF-10A.
Data set [14] deals with HepG2. The experiment in a line: Growth inhibition of human HepG2 cells at 30 ug/ml by MTT assay. It is filed as functional. The settings on record: read-out: GI.
For data set [15], the system named is MCF7. The experiment in a line: Growth inhibition of human MCF7 cells by MTT assay. It is filed as functional, cell-based.
Data set [16] has as its system COLO 205. As to the kind of experiment: Growth inhibition of human COLO205 cells at 10 ug/ml by MTT assay. The settings on record: read-out: GI. It is filed as functional.
Data set [17] has as its system MCF7. The experiment in a line: Growth inhibition of human MCF7 cells at 5 ug/ml by MTT assay. The settings on record: read-out: GI. It is filed as functional.
Data set [18] deals with HepG2. The experiment in a line: Growth inhibition of human HepG2 cells by MTT assay. It is filed as functional, cell-based.
Data set [19] concerns HepG2. As to the kind of experiment: Growth inhibition of human HepG2 cells at 20 ug/ml by MTT assay. It is filed as functional. The settings on record: read-out: GI.

As to `O=c1cc(-c2ccccc2)oc2cc(O)cc(O)c12` [CHRYSIN], in data set [1], the inhibition at 5 ug/ml amounted to 5.92%. Besides, the inhibition at 30 ug/ml in data set [2] turned out to be 29.6%. For the same compound, the inhibition of growth at 20 µg/mL was determined as 56.5% in the data set with COLO 205 [3], 86.5% with MCF7 [4] and 55.3% with HepG2 [19]. In addition, the inhibition of growth at 5 µg/mL in the data set with HepG2 [5] worked out at 14.8%; with COLO 205 [9] it was 15.2%; in the data set on MCF7 [17], 14.6%. The inhibition of growth at 10 µg/mL was determined as 29.2% with HepG2 [6], 45.2% with MCF7 [7] and 24.9% with COLO 205 [16]. In addition, the “growth inhibition (GI)” value in the data set with COLO 205 [8], with MCF7 [15] and in the data set with HepG2 [18] was “Dose-dependent effect” each time. The inhibition at 10 ug/ml in [10] is 14.5%. Besides, the inhibition of growth at 30 µg/mL in the data set with MCF7 [11] is 97%; in the data set with COLO 205 [12], 65.2%; with HepG2 [14], 65.1%. Further, the inhibition at 20 ug/ml in data set [13] is 21.4%.

Source of the values: ChEMBL document CHEMBL2429759, “Anti-tumor activity evaluation of novel chrysin-organogermanium(IV) complex in MCF-7 cells” (Bioorg Med Chem Lett, 2013).
